For assay [1], the target named is T1, KRas G12D (Homo sapiens (Human), UniProt P01116, G12D). Kind of assay: KRas G12D Binding Assay (TR-FRET displacement of Cy5 labelled tracer). Particulars: GDP-loaded KRAS G12D (amino acids 1:169), 60 minute incubation at 22° C. How it is done:
After a 60 minute incubation at 22° C., the reaction was measured using a PerkinElmer EnVision multimode plate reader via TR-FRET dual wavelength detection, and the percent of control (POC) calculated using a ratiometric emission factor. […] The POC values were fit to a 4-parameter logistic curve and the IC50 value was determined as the concentration where the curve crosses 50 POC.
ND stands for “not determined.”
Target sequence in this assay (P01116 other isoform, or with tags, fused parts or gaps G12D): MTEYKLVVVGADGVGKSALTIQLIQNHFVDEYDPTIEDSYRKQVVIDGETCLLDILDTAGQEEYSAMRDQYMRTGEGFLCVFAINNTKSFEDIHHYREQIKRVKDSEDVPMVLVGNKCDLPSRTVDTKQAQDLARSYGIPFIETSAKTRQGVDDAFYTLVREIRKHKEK

Assay [2] addresses T1, KRas G12D. Kind of assay: KRas G12D Surface Plasmon Resonance (SPR) Binding Assay. The conditions noted are these: Biacore T200, immobilized biotinylated KRAS protein, 1:1 binding model. As for the experimental part:
Briefly, 1L of 1.05X HBS-Mg buffer (262.5 mM Bioultra Hepes, pH 7.5, 157.5 mM NaCl, 105 mM MgCl2, 0.525 mM TCEP, 0.0305% Brij-35) was prepared and filter sterilized using a 0.22 μm bottle top filter. Approximately 50 mL of 1.05X HBS-Mg buffer was removed and saved for future dilutions. A 50 mL aliquot of DMSO (Sigma Aldrich DMSO Lot. #SHBK2079) was added and continued to stir for 10 minutes, creating the final 1.0X HBS-Mg buffer (250 mM Bioultra Hepes pH 7.5, 150 mM NaCl, 100 mM MgCl2, 0.5 mM TCEP, 0.03% Brij-35).
Biacore T200 instrument was primed using 1.0X HBS-Mg buffer before docking a GE Streptavidin (SA) chip and then primed two additional times prior to beginning the immobilization step. All immobilized protein mixtures were created using 3-5 mg/mL Biotinylated Avidin-tagged KRAS protein using the following immobilization settings: SA chip type, 1 flow cells per cycle, 720 second contact time, and 5 ul/min flow rate. Normalization of the detector was also performed during the immobilization step using the GE BiaNormalize solution.
All compounds were diluted to 10 mM in 100% DMSO prior to being diluted 20X in 1.05X buffer. Another 10X dilution was created using 1.0X buffer prior to performing a series of 3X dilutions to create a compound concentration curve using the following assay settings: 20C analysis temperature, General Settings=10 Hz data collection rate and multi-detection; Assay Steps=all set to LMW kinetics; Cycle Types=LMW kinetics (60 s contact time, 120 s dissociation time, 100 ul/min flow rate, extra wash after injection with 50% DMSO, flow path 1,2,3,4); Flow path detection=2-1, 4-3). Data evaluation was performed using the Biacore T200 Evaluation software and data fit to 1:1 binding model. ND=not determined.
Target sequence in this assay (P01116-2 other isoform, or with tags, fused parts or gaps G12D): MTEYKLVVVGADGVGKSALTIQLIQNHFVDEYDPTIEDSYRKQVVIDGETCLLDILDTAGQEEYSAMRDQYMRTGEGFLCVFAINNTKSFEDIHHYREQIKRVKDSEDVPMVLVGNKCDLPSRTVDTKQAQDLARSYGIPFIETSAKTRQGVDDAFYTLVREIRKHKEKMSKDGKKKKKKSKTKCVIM

Among the data in patent US20230279025A1, “KRAS G12D INHIBITORS” (Mirati Therapeutics, Inc., priority 2020, published 2023) are IC50 and Kd values, retold here.

In the case of `COc1nc(N2C[C@H]3CC[C@@H](C2)N3)c2cnc(-c3cccc4cccc(C)c34)c(F)c2n1` [Example 317, 4-((1R,5S)-3,8-diazabicyclo[3.2.1]octan-3-yl)-8-fluoro-2-methoxy-7-(8-methylnaphthalen-1-yl)pyrido[4,3-d]pyrimidine], in assay [1], the IC50 was over 10 µM. The Kd in assay [2] is 91.3 µM.
As to `CN1C[C@H](C(F)(F)F)C[C@H]1COc1nc(N2C[C@H]3CC[C@@H](C2)N3)c2cnc(-c3cc(O)cc4ccccc34)c(F)c2n1` [Example 28, 4-(4-((1R,5S)-3,8-diazabicyclo[3.2.1]octan-3-yl)-8-fluoro-2-(((2S,4R)-1-methyl-4-(trifluoromethyl)pyrrolidin-2-yl)methoxy)pyrido[4,3-d]pyrimidin-7-yl)naphthalen-2-ol], the affinity in assay [2], expressed as Kd, was 0.0587 µM.
Still for that read-out and setting: in the case of `CCN1CCC[C@H]1COc1nc(N2C[C@H]3CC[C@@H](C2)N3)c2cnc(-c3cc(O)cc4ccccc34)c(F)c2n1` [Example 11, 4-(4-((1R,5S)-3,8-diazabicyclo[3.2.1]octan-3-yl)-2-(((S)-1-ethylpyrrolidin-2-yl)methoxy)-8-fluoropyrido[4,3-d]pyrimidin-7-yl)naphthalen-2-ol] it was 0.0049 µM.
The same measure, in the same setting: in the case of `CN1CCC[C@H]1CCOc1nc(N2C[C@H]3CC[C@@H](C2)N3)c2cnc(-c3cc(O)cc4ccccc34)c(F)c2n1` [Example 10, 4-(4-((1R,5S)-3,8-diazabicyclo[3.2.1]octan-3-yl)-8-fluoro-2-(2-((S)-1-methylpyrrolidin-2-yl)ethoxy)pyrido[4,3-d]pyrimidin-7-yl)naphthalen-2-ol] it was 0.0338 µM.
In assay [2], `CC(Oc1nc(N2C[C@H]3CC[C@@H](C2)N3)c2cnc(-c3cc(O)cc4ccccc34)c(F)c2n1)C1CCCN1C` (stereo partly drawn) [Example 27, 4-(4-((1R,5S)-3,8-diazabicyclo[3.2.1]octan-3-yl)-8-fluoro-2-(1-(1-methylpyrrolidin-2-yl)ethoxy)pyrido[4,3-d]pyrimidin-7-yl)naphthalen-2-ol] came in with a Kd of 0.0259 µM.
On the same count and under the same terms, in the case of `Oc1cc(-c2ncc3c(N4C[C@H]5CC[C@@H](C4)N5)nc(OC[C@@H]4CCCN4Cc4ccccc4)nc3c2F)c2ccccc2c1` [Example 12, 4-(2-(((S)-1-benzylpyrrolidin-2-yl)methoxy)-4-((1R,5S)-3,8-diazabicyclo[3.2.1]octan-3-yl)-8-fluoropyrido[4,3-d]pyrimidin-7-yl)naphthalen-2-ol] it was 0.011 µM; in that of `CN1CCC[C@H]1COc1nc(N2CC3CCC(CO)(C2)N3)c2cnc(-c3cc(O)cc4ccccc34)c(F)c2n1` (stereo partly drawn) [Example 215, 4-(8-fluoro-4-(1-(hydroxymethyl)-3,8-diazabicyclo[3.2.1]octan-3-yl)-2-(((S)-1-methylpyrrolidin-2-yl)methoxy)pyrido[4,3-d]pyrimidin-7-yl)naphthalen-2-ol bis(2,2,2-trifluoroacetate)], 0.0704 µM; in that of `COc1cccnc1CCOc1nc(N2C[C@H]3CC[C@@H](C2)N3)c2cnc(-c3cc(O)cc4ccccc34)c(F)c2n1` [Example 140, 4-(4-((1R,5S)-3,8-diazabicyclo[3.2.1]octan-3-yl)-8-fluoro-2-(2-(3-methoxypyridin-2-yl)ethoxy)pyrido[4,3-d]pyrimidin-7-yl)naphthalen-2-ol], 5.59 µM.
In assay [2], `CN1CCC[C@H]1COc1nc(N2CC3CCC(C=O)(C2)N3)c2cnc(-c3cc(O)cc4ccccc34)c(F)c2n1` (stereo partly drawn) [Example 214, 3-(8-fluoro-7-(3-hydroxynaphthalen-1-yl)-2-(((S)-1-methylpyrrolidin-2-yl)methoxy)pyrido[4,3-d]pyrimidin-4-yl)-3,8-diazabicyclo[3.2.1]octane-1-carbaldehyde] registered a Kd of 0.284 µM.
Still for that read-out and setting: for `CN1CCC[C@H]1COc1nc(N2C[C@H]3CC[C@@H](C2)N3)c2cnc(-c3cccc4c3CCC4)c(F)c2n1` [Example 23, 4-((1R,5S)-3,8-diazabicyclo[3.2.1]octan-3-yl)-7-(2,3-dihydro-1H-inden-4-yl)-8-fluoro-2-(((S)-1-methylpyrrolidin-2-yl)methoxy)pyrido[4,3-d]pyrimidine] the value was 0.807 µM.
On the same count and under the same terms, in the case of `Oc1cc(-c2ncc3c(N4C[C@H]5CC[C@@H](C4)N5)nc(OCc4ccccc4F)nc3c2F)c2ccccc2c1` [Example 217, 4-(4-((1R,5S)-3,8-diazabicyclo[3.2.1]octan-3-yl)-8-fluoro-2-((2-fluorobenzyl)oxy)pyrido[4,3-d]pyrimidin-7-yl)naphthalen-2-ol] it was 2.98 µM; in that of `CN(C)C(=O)CCOc1nc(N2C[C@H]3CC[C@@H](C2)N3)c2cnc(-c3cc(O)cc4ccccc34)c(F)c2n1` [Example 13, 3-((4-((1R,5S)-3,8-diazabicyclo[3.2.1]octan-3-yl)-8-fluoro-7-(3-hydroxynaphthalen-1-yl)pyrido[4,3-d]pyrimidin-2-yl)oxy)-N,N-dimethylpropanamide], 0.511 µM.
In turn, `CC1(C)CN2CCCC2(COc2nc(N3CC4CCC(C3)N4)c3cnc(-c4cccc5cccc(Cl)c45)c(F)c3n2)C1` [Example 228, 4-((1R,5S)-3,8-diazabicyclo[3.2.1]octan-3-yl)-7-(8-chloronaphthalen-1-yl)-2-((2,2-dimethyltetrahydro-1H-pyrrolizin-7a(5H)-yl)methoxy)-8-fluoropyrido[4,3-d]pyrimidine bis-2,2,2-trifluoroacetate] yielded a concentration for half-maximal inhibition (IC50) in assay [1] of 0.0877 µM.
The same measure, in the same setting: in the case of `Fc1c(-c2ccccc2C2CC2)ncc2c(N3C[C@H]4CC[C@@H](C3)N4)nc(OC[C@@]34CCCN3C[C@H](F)C4)nc12` [Example 448, 4-((1R,5S)-3,8-diazabicyclo[3.2.1]octan-3-yl)-7-(2-cyclopropylphenyl)-8-fluoro-2-(((2R,7aS)-2-fluorohexahydro-1H-pyrrolizin-7a-yl)methoxy)pyrido[4,3-d]pyrimidine] it was 0.13 µM; in that of `FCCCc1cccc2cccc(-c3ncc4c(N5C[C@H]6CC[C@@H](C5)N6)nc(OCC56CCCN5CCC6)nc4c3F)c12` [Example 255, 4-((1R,5S)-3,8-diazabicyclo[3.2.1]octan-3-yl)-8-fluoro-7-(8-(3-fluoropropyl)naphthalen-1-yl)-2-((hexahydro-1H-pyrrolizin-7a-yl)methoxy)pyrido[4,3-d]pyrimidine], 0.0087 µM.
`CC(C)(N)COc1nc(N2CC3CCC(C2)N3)c2cnc(-c3cccc4cccc(Cl)c34)c(F)c2n1` [Example 387, bis(2,2,2-trifluoroacetate)] showed an IC50 in assay [1] of 0.533 µM.
With `O[C@@H]1C[C@@H]2CN(c3nc(N4CCC4)nc4c(F)c(-c5cccc6cccc(Cl)c56)ncc34)C[C@H]1N2` [Example 152, (1R,5R,6R)-3-(2-(azetidin-1-yl)-7-(8-chloronaphthalen-1-yl)-8-fluoropyrido[4,3-d]pyrimidin-4-yl)-3,8-diazabicyclo[3.2.1]octan-6-ol], the IC50 in assay [1] was 2.65 µM.
Still for that read-out and setting: in the case of `Fc1c(-c2cccc3cccc(OC(F)F)c23)ncc2c(N3C[C@H]4CC[C@@H](C3)N4)nc(OCC34CCCN3CCC4)nc12` [Example 346, 4-((1R,5S)-3,8-diazabicyclo[3.2.1]octan-3-yl)-7-(8-(difluoromethoxy)naphthalen-1-yl)-8-fluoro-2-((tetrahydro-1H-pyrrolizin-7a(5H)-yl)methoxy)pyrido[4,3-d]pyrimidine] it was 0.0105 µM; in that of `CN1CCCC1(CO)COc1nc(N2C[C@H]3CC[C@@H](C2)N3)c2cnc(-c3cccc4ccccc34)c(F)c2n1` (stereo partly drawn) [Example 323, (2-(((4-((1R,5S)-3,8-diazabicyclo[3.2.1]octan-3-yl)-8-fluoro-7-(naphthalen-1-yl)pyrido[4,3-d]pyrimidin-2-yl)oxy)methyl)-1-methylpyrrolidin-2-yl)methanol], 1.69 µM.
Still for that read-out and setting: in the case of `Fc1c(-c2cccc3c2C(C2CC2)CC3)ncc2c(N3CC4CCC(C3)N4)nc(OC[C@@]34CCCN3C[C@H](F)C4)nc12` (stereo partly drawn) [Example 437, 4-(3,8-diazabicyclo[3.2.1]octan-3-yl)-7-(3-cyclopropyl-2,3-dihydro-1H-inden-4-yl)-8-fluoro-2-(((2R,7aS)-2-fluorotetrahydro-1H-pyrrolizin-7a(5H)-yl)methoxy)pyrido[4,3-d]pyrimidine] it was 0.234 µM; in that of `CO[C@H]1CN2CCC[C@]2(COc2nc(N3CC4CCC(C3)N4)c3cnc(-c4cc(O)cc5cccc(F)c45)c(F)c3n2)C1` (stereo in doubt) [Example 406, 4-(4-((1R,5S)-3,8-diazabicyclo[3.2.1]octan-3-yl)-8-fluoro-2-((2-methoxytetrahydro-1H-pyrrolizin-7a(5H)-yl)methoxy)pyrido[4,3-d]pyrimidin-7-yl)-5-fluoronaphthalen-2-ol], 0.0009 µM.
